Measured values as given in PubChem BioAssay (NCI).
“And” between values parts separate entries of the source, which are not always exact repeats. Equal values may be shown once.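 Five concentrations, 48 hours, 96-well plates. Abbreviation: GI50, concentration required for 50% inhibition of growth. Definition used: TGI = concentration required for complete inhibition of growth.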

What was measured:
Assay in all cases: NCI tumour cell line growth inhibition, 48 h
[1] = system: HOP-62 NSCLC
[2] = system: MALME-3M melanoma
[3] = system: RXF 393 renal
[4] = system: SW-620 colon
[5] = system: SK-OV-3 ovarian
[6] = system: NCI-H226 lung
[7] = system: SNB-75 CNS
[8] = system: M14 melanoma
[9] = system: BT-549 breast
[10] = system: PC-3 prostate

Compound | TGI [1] | TGI [2] | TGI [3] | TGI [4] | TGI [5] | TGI [6] | TGI [7] | TGI [8] | GI50 [1] | GI50 [9] | TGI [9] | GI50 [2] | GI50 [3] | GI50 [4] | GI50 [7] | GI50 [5] | GI50 [6] | GI50 [8] | GI50 [10] | TGI [10]
N#Cc1ccccc1Nc1ccccc1S | > 100 µM | 80.3 µM | 53 µM | 47.1 µM | > 100 µM | 43.9 µM | – | – | – | – | – | – | – | – | – | – | – | – | – | –
C[N+]1=c2c3cccc4cccc(c(=O)n2CCC1)c43 | 86.2 µM | 32.9 µM | 60.8 µM | > 100 µM | 80.1 µM | 36.5 µM | 78.7 µM | 33.2 µM | – | – | – | – | – | – | – | – | – | – | – | –
CON | > 100 µM | > 100 µM | > 100 µM | > 100 µM | > 100 µM | > 100 µM | > 100 µM | > 100 µM | > 100 µM | > 100 µM | > 100 µM | > 100 µM | > 100 µM | > 100 µM | > 100 µM | > 100 µM | > 100 µM | > 100 µM | – | –
O=C1c2ccccc2C(=O)c2sc(Nc3ccc(Cl)c(Cl)c3)nc21 | 21.3 µM | 9.47 µM | 12.4 µM | 3.19 µM | 32.1 µM | 16.2 µM | 26.7 µM | 9.86 µM | – | – | – | – | – | – | – | – | – | – | – | –
NC(=O)CCC(NC(=O)C(F)(F)F)C(=O)O (stereo not given) | > 100 µM | > 100 µM | > 100 µM | > 100 µM | > 100 µM | > 100 µM | > 100 µM | > 100 µM | – | – | – | – | – | – | – | – | – | – | – | –
CC(=O)/C=C/C1=C(c2ccsc2)c2ccccc2CC1 | 66.8 µM | 58.1 µM | – | > 100 µM | > 100 µM | 44.4 µM | > 100 µM | 37.1 µM | 26.1 µM | 29.5 µM | 69.3 µM | 23.6 µM | – | 33.7 µM | > 100 µM | 64.4 µM | 18.8 µM | 17.8 µM | 23.9 µM | 65.3 µM
O=C1CCC(=O)C(C(=O)CCC(=O)Nc2cccc(Cl)c2)C1 (stereo not given) | > 100 µM | > 100 µM | > 100 µM | > 100 µM | > 100 µM | > 100 µM | > 100 µM | > 100 µM | – | – | – | – | – | – | – | – | – | – | – | –
C=C=[CH][Sn]([c]1ccccc1)([c]1ccccc1)[c]1ccccc1 | 5.26 µM | 3.57 µM | 2.28 µM | 2.17 µM | 4.73 µM | 4.6 µM | 4.72 µM | 3.47 µM | 2.45 µM | – | – | 1.74 µM | 1.07 µM | 0.821 µM | 1.31 µM | 2.15 µM | 2.28 µM | 1.81 µM | 1.46 µM | 3.68 µM
CC(C)NC(=O)O/N=C1\CCC2[C@@H]3CC=C4C[C@@H](OC(=O)NC(C)C)CC[C@]4(C)C3CC[C@]12C (stereo not given in full) | > 34 µM | 0.983 µM | 3.54 µM | 3.72 µM | 13.5 µM | > 100 µM | 3.74 µM | 1.95 µM | – | – | – | – | – | – | – | – | – | – | – | –
CCOC(=O)CNC(=O)C(CSC(=O)N(C)O)NC(=O)CCC(N)C(=O)O (stereo not given) | > 2000 µM | > 2000 µM | > 2000 µM | > 2000 µM | > 2000 µM | > 2000 µM | > 2000 µM | > 2000 µM | > 2000 µM | – | – | > 2000 µM | > 2000 µM | > 2000 µM | > 2000 µM | > 2000 µM | > 2000 µM | > 2000 µM | – | –
CC1=NN(c2ccccc2)C(=O)C1N=Nc1ccc(Br)c(C)c1 (stereo not given) | > 100 µM | > 100 µM | > 100 µM | > 100 µM | > 100 µM | > 100 µM | > 100 µM | > 100 µM | – | – | – | – | – | – | – | – | – | – | – | –
OC1C2C=CCC1CCC2 (stereo not given) | > 100 µM | > 100 µM | > 100 µM | > 100 µM | > 100 µM | > 100 µM | > 100 µM | > 100 µM | – | – | – | – | – | – | – | – | – | – | – | –
O=P1(O)c2ccccc2CS(=O)(=O)Cc2ccccc21 | > 100 µM | – | > 100 µM | > 100 µM | > 100 µM | > 100 µM | – | > 100 µM | – | – | > 100 µM | – | – | – | – | – | – | – | – | > 100 µM
Cc1ccc(-c2cc(/C=N/O)on2)cc1 | > 100 µM | > 100 µM | > 100 µM | > 100 µM | > 100 µM | > 100 µM | – | > 100 µM | > 100 µM | 49.5 µM | > 100 µM | > 100 µM | > 100 µM | 65.7 µM | – | > 100 µM | 36.2 µM | 65.4 µM | 63 µM | > 100 µM
CC(C)[O-].CC(C)[O-].[O-]c1cccc2cccnc12.[O-]c1cccc2cccnc12.[Ti+4] | > 100 µM | > 100 µM | 6.04 µM | > 100 µM | > 100 µM | > 100 µM | > 100 µM | > 100 µM | > 100 µM | – | – | 25.7 µM | 2.42 µM | 6.47 µM and 5.89 µM | > 100 µM | > 100 µM | > 100 µM | 9.68 µM and 10.8 µM | – | –
OC(c1ccccc1)c1c(-c2ccccc2)oc(-c2ccccc2)c1C(O)c1ccccc1 (stereo not given) | 27.9 µM | 25.4 µM | 21.5 µM | 34.1 µM | 30.1 µM | 21.9 µM | – | 21.9 µM | – | – | – | – | – | – | – | – | – | – | – | 24.1 µM
CCOC(=O)N1CCC(=O)C[C@@H]1C/C=C/P1(=O)O[C@H](c2ccccc2)C(C)N1C(C)C (stereo not given in full) | – | > 100 µM | > 100 µM | > 100 µM | > 100 µM | > 100 µM | > 100 µM | – | – | – | – | – | – | – | – | – | – | – | – | –
C=C1CC(C/C=C(\C)CC2CC(=C)C(=O)O2)OC1=O (stereo not given) | > 100 µM | > 100 µM | > 100 µM | > 100 µM | > 100 µM | – | > 100 µM | > 100 µM | – | – | – | – | – | – | – | – | – | – | – | –
C=C1CO[C@@H]2C[C@@H]1CC/C(C)=C/CC/C(C)=C/CC[C@@]2(C)O | 32.5 µM | – | 39.3 µM | 45.9 µM | 56.6 µM | – | 46.3 µM | 32.9 µM | 17.1 µM | 24.6 µM | 51.5 µM | – | 20 µM | 22.2 µM | 25 µM | 24 µM | – | 17.9 µM | 15.7 µM | 33.6 µM
c1cnc2c(c1)Nc1cnncc1S2 | > 100 µM | > 100 µM | > 100 µM | > 100 µM | > 100 µM | > 100 µM | 97.8 µM | > 100 µM | – | – | – | – | – | – | – | – | – | – | – | > 100 µM
